Measurements published in patent US11542311B2, “Fusion protein, preparation method therefor and application thereof in preparing ophthalmic disease treatment, anti-inflammation and anti-tumor medicament” (JIANGSU RONGTAI BIOTECH CO., LTD., priority 2017, dated 2023).

Tests used:
[1] = tested on: human retinal vascular endothelial cell (HRCEC); experiment: MTT assay, proliferation of human retinal vascular endothelial cell (HRCEC); assay type: cell-based; conditions: 5 μg/mL, 48 h
Experimental: The activity of the integrin blocker polypeptide to inhibit proliferation of human retinal vascular endothelial cells was examined by MTT assay. HRCEC cells were cultured in a 5% CO2 incubator at 37° C. to a density of 90% or more, and then collected by trypsinization. The cells were resuspended in the culture liquid and counted under a microscope. The cell concentration was adjusted to 3.0×10^4 cells/mL. The cell suspension was inoculated into a 96-well plate, 100 μL per well, and cultured overnight in a 5% CO2 incubator at 37° C. […] After the cells were fully adhered, each dilution was added to a 96-well plate, 100 μL per well, respectively. […] 20 μL of 5 mg/mL MTT was added to each well of a 96-well plate, and incubation was continued for 4 hours. The medium was aspirated and 100 μL of DMSO was added per well for dissolution. The absorbance was measured at 570 nm with a microplate reader with a reference wavelength of 630 nm, and the proliferation inhibition (PI) was calculated. The formula was as follows: […]
where Ntest is the OD value of the test group and Ncontrol is the OD value of the blank control group.
The test was repeated 5 times independently. The results obtained from the test were calculated as mean±SD, and statistical t-test was performed. P<0.05 was considered as a significant difference, and P<0.01 was considered as an extremely significant difference.

[2] = tested on: angiogenesis of chicken embryo chorioallantoic membrane; experiment: Chicken embryo chorioallantoic membrane (CAM) angiogenesis assay; assay type: in vivo, White Leghorn chicken embryos; conditions: 10 μg, 72 hours
Experimental: The study has shown that the biosynthesis rate of collagen reached the maximum on the 8th to 11th day of chicken embryo development, which was the most vigorous stage of angiogenesis, and the body's immune system had not yet been fully established at that time, and thus the chicken embryos developed to the 8th day was selected to be administered. […] The following steps were used:
(1) The White Leghorn chicken embryos on day 6 were cultured in a 37° C. incubator at 60%-70% humidity for two days.
(2) A 1.0 cm×1.0 cm window was drilled above the chicken embryo air sac, and the inner membrane was torn off with forceps to expose the chorioallantoic membrane. Lens paper having a diameter of 5 mm was used as a loading carrier, and was placed on the chorioallantoic membrane of the chicken embryo air sac. […]
(3) The chicken embryo air sac was sealed with a sterile transparent tape, and after culturing at 37° C. for 72 hours, the chicken embryo air sac was opened, and a fixative (formaldehyde:acetone=1:1) was added for fixation for 15 minutes. The chorioallantoic membrane to which the lens paper was adhered was taken out, the distribution of the new blood vessels was observed, and the new blood vessels were counted and photographed. Five replicates were set for each dose and the results were statistically analyzed.

[3] = tested on: mouse spleen lymphocytes; experiment: Proliferation of mouse spleen lymphocytes (ConA, MTT); assay type: cell-based; conditions: 20 μg/mL, 48 h
Experimental: Tris-NH4Cl was used to break the red blood cells, which were allowed to stand in an ice water bath for 4 min and centrifuged (1000 rpm, 5 min), the supernatant was discarded, and the cells were washed twice with sterile PBS.
The cells were statically cultured in a cell incubator at 37° C. for 48 h. After the completion of the culture, 20 μL of MTT was added to each well, and the culture was continued for 4 h. Finally, all the solutions in each well were discarded, 100 μL of DMSO was added to each well, and the mixture was shaken and detected by a microplate reader for OD value at 570 nm. 5 parallels were preformed for per well.

[4] = tested on: IL-1β production by mouse peritoneal macrophages; experiment: IL-1β production by mouse peritoneal macrophages (ELISA); assay type: cell-based; conditions: 20 μg/mL, 48 h
Experimental: (1) IL-1β production: mice were intraperitoneally injected with 1 mL of broth medium containing 6% starch, and three days later, the mouse peritoneal macrophages were aseptically taken, washed twice with a 1640 medium, adjusted to the cell concentration of 2×10^6 cells/mL, inoculated into a 24-well culture plate, 1 mL/well, incubated for 3 h in a cell culture incubator, and shaken once every 30 min, so that the cells were allowed to adhere sufficiently. Then, the cells were washed twice with a culture liquid to remove un-adhered cells. […] After administration, the culture was continued for 48 h, the cells were centrifuged at 1000 r/min for 15 min. The supernatant was taken as a sample for testing activity of IL-1β.
(2) Determination of IL-1β content: the detection was performed by using mouse IL-1β enzyme-linked immunosorbent assay kit from R&D company. […]

[5] = tested on: peritoneal capillary permeability in mice; experiment: Peritoneal capillary permeability in mice (Evans blue, HAc); assay type: in vivo, Kunming mice; conditions: 10 mg/kg by injection
Experimental: The drug was administered once by injection every 5 days, and the blank model group was given an equal volume of physiological saline for 5 days and fed normally. On the 5th day after the administration, a 5 g/L of Evans blue physiological saline solution was injected into the tail vein at […], followed by intraperitoneal injection ([…]) HAc solution (6 mL/L) to induce inflammation. After 20 min, the mice were sacrificed by cervical dislocation. 5 mL of physiological saline was intraperitoneally injected, the abdomen was gently rubbed for 2 min, the abdominal cavity was cut, a peritoneal washing solution was collected and centrifuged at 4000 rpm for 10 min, 1 mL of supernatant was taken, and 3 mL of physiological saline was added to obtain a 4 mL of dilution. The absorbance OD value of the dilution was measured by an ultraviolet spectrophotometer at a wavelength of 590 nm, and the amount of pigment exudation was expressed by the OD590 nm value, and peritoneal capillary permeability in mice was examined.

[6] = tested on: toe swelling in rat induced by carrageenan; experiment: Acute inflammation of toe swelling in rat induced by carrageenan; assay type: in vivo, SD rats; conditions: 10 mg/kg
Experimental: 80 SD rats were randomly divided into 8 groups with 10 mice for each group. […] The drug was administered once by injection every 5 days, and the model group was given an equal volume of physiological saline for 3 days and fed normally. On the third day after the administration, 0.1 mL of 1% carrageenan was injected subcutaneously into the right hind toes of the rats to induce inflammation. The foot volume was measured at 1 h, 3 h, 5 h, and 7 h after inflammation. The swelling degree of the foot was calculated according to the following formula: the swelling degree of the foot (mL)=the volume of the foot after inflammation−the volume before inflammation. The number of milliliters of spilled liquid was recorded (method: the protruding point of the right joint was circled with a ballpoint pen and used as a measurement mark, and the right hind feet of the rats were sequentially placed in the volume measuring device, so that the hind limbs were exposed outside the cylinder, and the depth of the immersion was limited to the overlap of the circle and the liquid level. After the foot entered the liquid, the liquid level was raised, and the volume of the spilled liquid was the volume of the right hind foot of the rat, and the normal volume of the right hind foot of each mouse is sequentially determined).

Compound	A570 nm/A630 nm [1]	Blood vessel number [2]	A570 nm/A630 nm [3]	PI (%) [3]	IL-1β [4]	PI (%) ([4]; IL-1β)	Exudation rate (OD590) [5]	Swelling degree ([6]; 1 h after carrageenan)	Swelling degree ([6]; 3 h after carrageenan)	Swelling degree ([6]; 5 h after carrageenan)	Swelling degree ([6]; 7 h after carrageenan)
bevacizumab [Avastin ®, reference compound]	0.4544	63 ± 17									
C[C@@H]1C[C@H]2[C@@H]3CCC4=CC(=O)C=C[C@]4(C)[C@@]3(F)[C@@H](O)C[C@]2(C)[C@@]1(O)C(=O)CO [Dex, dexamethasone, reference compound]			0.3468 ± 0.1144	41.11%	322.46 ± 20.56 pg/mL	61.38%	0.27 ± 0.03	0.21 ± 0.11 mL	0.26 ± 0.10 mL	0.26 ± 0.11 mL	0.25 ± 0.09 mL
